The source of these data is ChEMBL document CHEMBL3286179, “Discovery of the Fibrinolysis Inhibitor AZD6564, Acting via Interference of a Protein-Protein Interaction” (ACS Med Chem Lett, 2014).

A short description of data set [1]: Dissociation constant, pKa of the compound. The format is physicochemical.
A short description of data set [2]: Oral bioavailability in dog at 6 umol/kg. The data set is classed as ADME, organism-based, Canis lupus familiaris. As to conditions: in vivo, at 6 µmol/kg.
Data set [3] is described as follows: Total clearance in rat at 5 umol/kg, iv and 20 umol/kg, po. The data set is classed as ADME, organism-based. Particulars: in vivo.
A short description of data set [4]: Oral bioavailability in rat at 20 umol/kg. As to conditions: in vivo, at 20 µmol/kg. The format is ADME, organism-based.
Data set [5] can be described thus: Metabolic stability in human liver microsomes. The data set is classed as ADME. Particulars: read-out: Stability. On the technique in general: Liver microsomes are vesicles of endoplasmic reticulum, rich in cytochrome P450 enzymes.
Data set [6] in a line: Renal clearance in rat at 5 umol/kg, iv and 20 umol/kg, po. Particulars: in vivo. The format is ADME, organism-based, Kidney.
Data set [7] can be described thus: Renal clearance in dog at 3 umol/kg, iv and 6 umol/kg, po. The data set is classed as ADME, organism-based, Canis lupus familiaris, Kidney. As to conditions: in vivo.
Data set [8] can be described thus: Drug excretion in rat urine. The data set is classed as ADME. As to conditions: in vivo.
The nature of data set [9]: Drug excretion in dog urine. The format is ADME, Canis lupus familiaris. As to conditions: read-out: Drug excretion.
A short description of data set [10]: Total clearance in dog at 3 umol/kg, iv and 6 umol/kg, po. The data set is classed as ADME, organism-based, Canis lupus familiaris. As to conditions: in vivo.
Data set [11] can be described thus: Drug metabolism in human hepatocytes assessed as glucuronidation on isoxazolone ring. The format is ADME, cell-based, Hepatocyte.
In a further data set the test system is Hepatocyte. Put plainly: Metabolic stability in human hepatocytes measured per 10^6 cells. The data set is classed as ADME, cell-based.

The structures appear in SMILES notation. Where only a bound is given, the exact number is not on record here.

Take `O=c1cc([C@@H]2CCN[C@H](Cc3ccccc3)C2)o[nH]1`: the pKa in data set [1] came out at 4.4.
Molecule `O=c1cc([C@H]2CCN[C@H](Cc3ccccc3)C2)o[nH]1` gave a pKa in data set [1] of 4.9.
Consider `O=c1cc([C@H]2CCN[C@@H](Cc3ccccc3)C2)o[nH]1`, for which the values for the bioavailability in data set [2] and in data set [4] were 73% and 33%, respectively. The clearance is 46 mL/min/kg in data set [3] and 2.9 mL/min/kg in data set [10]. Further, the microsomal CLint in data set [5] was under 5 µL/min/mg. The CL renal in data set [6] amounted to 11 mL/min/kg; in data set [7], 0.2 mL/min/kg. In [8], the Drug excretion is listed as 25 %ID. Further, the dose excreted in data set [9] came to 7%. In [11], the Drug metabolism result is “metabolite_detected”. The same molecule had a Stability in the data set with Hepatocyte of under 1 µL/min.
`CC(C)(C)C[C@H]1C[C@@H](c2cc(=O)[nH]o2)CCN1`: the bioavailability worked out at 53% in data set [2] and 39% in data set [4]. The values for the clearance in data set [3] and in data set [10] were 13 mL/min/kg and 1.1 mL/min/kg, respectively. For the same molecule, in data set [5], the microsomal CLint is under 5 µL/min/mg. Further, the CL renal in data set [6] was 6 mL/min/kg; in [7] it was 0.8 mL/min/kg. Besides, the Drug excretion in data set [8] came out at 45 %ID. Besides, in data set [9], the dose excreted was 70%. Also, in data set [11], the Drug metabolism entry is “metabolite_detected”. Besides, the Stability in the data set with Hepatocyte is under 1 µL/min.
For the molecule `O=c1cc([C@H]2CCN[C@@H](CCc3ccccc3)C2)o[nH]1`, the figures for the bioavailability in data set [2] and in [4] were 59% and 19%, respectively. For the same molecule, the values for the clearance in data set [3] and in data set [10] were 24 mL/min/kg and 1.8 mL/min/kg, respectively. For the same molecule, the microsomal CLint in data set [5] is under 5 µL/min/mg. The CL renal came out at 6 mL/min/kg in data set [6] and 0.12 mL/min/kg in data set [7]. For the same molecule, the Drug excretion in data set [8] is reported as 25 %ID. Also, the Drug metabolism result in data set [11] is listed as “metabolite_detected”. Also, in the data set on Hepatocyte, the Stability was under 1 µL/min.

As usually defined, the pKa is the negative logarithm of the acid dissociation constant. High values mean a group that holds its proton tightly, low ones a group that gives up its proton readily. As a reminder, the bioavailability is the share of a dose that reaches the circulation, judged against a reference dose that is usually intravenous. A low value points to poor availability.
